Experimental data: US8518869B2, “Pharmaceutical combined preparation containing a therapeutic protein” (Austria Wirtschaftsservice Gesellschaft m.b.H., priority 2004, dated 2013)

Key:
[1] = tested on: collagen-induced platelet aggregation; test: collagen-induced platelet aggregation in human plasma rich in thrombocytes (aggregometer, method by Born); type: cell-based; details: 300 μmol/L, ~1 μg collagen/mL TRP
Procedure: The platelet aggregation was performed with human plasma rich in thrombocytes (TRP) in a Dual Kanal Chronolog Aggregometer basically according to the method by Born (1969). At the onset of each experiment, the exact dose of collagen was determined for the aggregation induced by collagen (˜1 μg collagen/mL TRP) (95-100% inhibition of the collagen-induced aggregation by 300 μmol/L of acetylsalicylic acid). […] After another minute, aggregation was induced with collagen. Control experiments with collagen alone were carried out after every second to third measurement. […] In experiments with different thiol- and non-thiol-containing substances (N-acetyl-L-cysteine, ascorbic acid, DL-homocysteine, taurine, L-cysteine), pre-incubation was effected primarily with those substances, in analogy to the trials using reduced glutathione.

[2] = Text: It is understood that often arrangements must be made also for the storage of the preparation according to the invention so that said preparation will remain stable over an extended period of time. […] Hereby, it is possible to store the low-molecular thiol compound and the nitrosated protein of the preparation according to the invention both in combined and in separate form.

| Compound | inhibition at 300 µM [1] | pH-value at which stability in solution is greatest [2] |
| --- | --- | --- |
| CC(=O)Oc1ccccc1C(=O)O [acetylsalicylic acid] | 95 to 100% |  |
| haemoglobin |  | 6 and 7 |
| N[C@@H](CS)C(=O)O [L-cysteine] |  | < 7 |
